The record followed here is US20230203081A1, “LINCOSAMIDE ANTIBIOTICS AND USES THEREOF” (President and Fellows of Harvard College, priority 2020, published 2023).

One data set concerns E. faecalis VRE. Briefly: MIC (CLSI), first E. faecalis VRE line of Table 4. The class given is cell-based. The settings on record: Enterococcus faecalis, VRE. The procedure: (§1) Minimum inhibitory concentrations (MICs) were determined by broth microdilution method or agar dilution method following the Clinical and Laboratory Standards Institute guidelines. Standard bacterial strains were obtained from American Type Culture Collection (ATCC). Other bacterial strains were obtained from hospitals and commercial sources, so noted in Table 11. Before the start of the MIC experiment, standard and test compound stock solutions were prepared in dimethyl sulfoxide (DMSO, Aldrich D2650) at a stock concentration of 5,120 μg/mL. The compound concentration range typically employed for each experiment was 128-0.06 μg/mL (2.5% final DMSO concentration). Clindamycin was used as a comparator in all experiments and each experiment was performed in triplicate. Specialized procedures were employed for streptococcal and anaerobic strains. All other bacterial strains were sub-cultured on blood agar plates (tryptic soy agar with 5% sheep blood, Hardy Diagnostics) and incubated overnight at 35° C. Organisms were suspended in cation-adjusted Mueller-Hinton broth (CaMHB, BD 212322) and optical density was adjusted to 0.5 McFarland standard. Suspensions were further diluted to obtain a final inoculum of 5×10^5 CFU/mL for broth microdilution experiments.

Another data set has as its system E. coli MP-9 ΔTolC. Briefly: MIC (broth microdilution or agar dilution, CLSI). The format is cell-based. The settings on record: Escherichia coli. The procedure, abridged: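 Inoculum for broth microdilution was 5×10^5 CFU/mL final, prepared from overnight 35° C blood-agar subcultures (separate handling for streptococcal and anaerobic strains); MICs read by CLSI broth microdilution or agar dilution.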

Data set [1] concerns methicillin-resistant Staphylococcus aureus (MRSA). Briefly: MIC, panel of clinically derived MRSA strains. The class given is cell-based. Conditions: result in words. The procedure: as §1
Data set [2] has as its system Enterococcus faecium and Enterococcus faecalis strains resistant to vancomycin, linezolid, azithromycin, ciprofloxacin, levofloxacin, gentamicin, and …. The class given is cell-based. Conditions: panel of E. faecium and E. faecalis strains resistant to vancomycin, doxycycline. The procedure: as §1
Another data set deals with E. faecalis ATCC 29212. Briefly: Spontaneous resistance in standard bacterial strains. The class given is cell-based. The settings on record: agar with 4×, 8×, 16× MIC, 3 days. The procedure: (§2) […]. Bacterial strains (S. aureus ATCC 29213, S. aureus MRSA, and E. faecalis ATCC 29212) were suspended in normal saline and optical density was adjusted to 1.50 at 600 nm. Bacterial counts were measured by serial dilution and plating. Bacterial inoculum (250 μL) was transferred to the media plate and was spread evenly. Plates were incubated at 37° C. for 3 days, and were observed daily for resistant colonies to emerge.

Data set [3] concerns S. aureus ATCC 29213, S. aureus MRSA. Described as above. The class given is cell-based. Conditions: agar with 4×, 8×, 16× MIC, 3 days. The procedure: as §2
The next data set relates to HepG2. The experiment in a line: Mitochondrial ToxGlo assay. The format is cell-based, human. The procedure:
Mammalian cell experiments: All compounds were dissolved in sterile DMSO to a stock concentration of 20 μM and aliquoted prior to freezing at −20° C. Aliquots were limited to a maximum of 3 freeze-thaw cycles. A549 (human pulmonary carcinoma; […]) cells were cultured in Dulbecco's Modified Eagle Medium (DMEM) supplemented with 10% fetal bovine serum. K562 (human chronic myelogenous leukemia; […]) cells were cultured in Iscove's Modification of DMEM (IMDM) media supplemented with 10% fetal bovine serum. HCT116 (human colorectal carcinoma; […]) cells were cultured in McCoy's 5a (Iwakata & Grace Modification) media supplemented with 10% fetal bovine serum. HepG2 (human hepatocellular carcinoma; […]) cells were cultured in Eagle's Minimum Essential Medium (EMEM) supplemented with 10% fetal bovine serum. All cell cultures were maintained in a 5% CO2 incubator at 37° C.
Mitochondrial toxicity assays were conducted using the Promega Mitochondrial ToxGlo assay, pursuant to the manufacturer's protocol.

A short description of data set [4]: Mouse pharmacokinetics i.v. and p.o. Conditions: in vivo, 60 mg/kg. Further details: species or system mice.
A short description of data set [5]: Plasma protein binding, species m. The format is in vitro ADME. The settings on record: mouse.
The subject of a further data set is A. baumanii ATCC 19606. Briefly: Murine neutropenic thigh infection model. The format is in vivo, mice. The settings on record: neutropenic mouse thigh, A. baumanii ATCC 19606 (FIG. 4C).
In data set [6] the test system is S. pyogenes ATCC 19615. The format is in vivo. The procedure: The optical density of the bacterial suspension was adjusted to 0.1 at 600 nm using sterile BHIB and was then further diluted 1:1 in 10% hog gastric mucin (HGM, type III) to prepare the infecting inoculum in 5% HGM. Mice were infected by intraperitoneal injection of 250 μL, infecting inoculum, representing 1-2×10^6 CFU per animal. […] Animals were monitored for survival for seven days following infection.

Data set [7] concerns S. pyogenes ATCC 19615. Briefly: Murine neutropenic thigh infection model. The settings on record: neutropenic mouse thigh, S. pyogenes ATCC 19615, 24 h after a single intraperitoneal dose of 60 mg/kg.
Method: (§3) Animal studies: Animal experiments were performed at the Biology Research Infrastructure Laboratory of Harvard University following IACUC-approved protocols. Animals were maintained in accordance with National Research Council guidelines. Pathogen-free, 5-6-week-old, female CD-1 mice weighing 22-26 grams were obtained from Charles River Laboratories, Inc. (Kingston, N.Y.). Animals were acclimated for a minimum of three days prior to start of the studies. Mice were caged as a group of four per cage, were housed at 21-23° C. with humidity ranging from 30-70%, were exposed to 12-hour light and dark cycles, and were supplied with food and water ad libitum.
(§4) Mouse thigh infection studies: Mice were rendered neutropenic by administering cyclophosphamide intraperitoneally, 150 mg/kg four days prior, and 100 mg/kg one day prior to infection. Bacterial strains were cultured overnight on blood agar plates at 35° C. in 5% CO2. […] Homogenates were serially diluted and plated on blood agar plates (each sample was plated in duplicate), and bacterial counts (log10 CFU/thigh) were determined after incubating the plates overnight at 35° C. in 5% CO2. Each experiment was repeated twice, and mean values were calculated (n=4 mice per time point).
The next data set concerns S. aureus (MRSA). Briefly: Murine neutropenic thigh infection model. The settings on record: neutropenic mouse thigh, 24 h after a single intraperitoneal dose of 60 mg/kg.

Structures are written as SMILES. In brackets after ≈: the same amount, converted by molar mass. Entries after “also recorded” stand apart in the source; their conditions may differ. Like-named read-outs stand apart in the source and are kept apart here. Some results are limits rather than exact numbers.

Method for S. aureus (MRSA): as §3, §4

`CCC[C@@H]1C[C@@H](C(=O)N[C@@H]([C@H]2O[C@H](SC)[C@H](O)[C@@H](O)[C@H]2O)[C@H](C)Cl)N(C)C1` [Clindamycin, clindamycin, reference compound] showed an MIC against E. faecalis VRE of more than 128 µg/mL.
In the data set with E. coli MP-9 ΔTolC, `CSC1O[C@H]([C@H](NC(=O)[C@H]2NC[C@@H]3C[C@H](CC(C)C)CCO[C@H]32)[C@H](C)Cl)C(O)[C@@H](O)[C@H]1O` (stereo partly shown) [FSA-513018b] registered an MIC of 0.5 µg/mL (≈ 1.01 µM). Further, in data set [1], the “activity against a panel of clinically derived MRSA strains” value is recorded as “uniformly high activity”. Besides, the MICs in [2] is not above 2 µg/mL. For the same molecule, the spontaneous resistance entry (in the data set on E. faecalis ATCC 29212; in [3]) was “not observed; also recorded: No colonies were noted on any plate” each time. The “effect on membrane integrity” value in the data set with HepG2 (HepG2, Mitochondrial ToxGlo) was “no effect”. Moreover, the “effect on mitochondrial function” value with HepG2 (HepG2, Mitochondrial ToxGlo (ATP production)) is recorded as “no effect”. In addition, the AUC is 6800 ± 1300 ng·h/mL in [4] (iv) and 1600 ± 400 ng·h/mL in data set [4] (po). Further, the results for the Cmax in data set [4] (iv) and in [4] (po) were 7900 ± 3000 ng/mL and 1600 ± 700 ng/mL, respectively. This molecule registered an MRT in [4] (iv) of 1.2 h. The molecule further gave a clearance in data set [4] (iv) of 148 mL/min/kg. In addition, in [4] (iv, read-out: Vss), the Vd was found to be 12.5 ± 0.4 L/kg. The same molecule showed a bioavailability in data set [4] (po) of 24%. Besides, in [5], the fraction unbound is 0.05. The “efficacy in thigh infection model” value in the data set on A. baumanii ATCC 19606 is listed as “effective”. For the same molecule, the Mice surviving in the data set on S. pyogenes ATCC 19615 [6] (1 mg/kg i.v., Day 1, n=8, clindamycin given as clindamycin phosphate) came out at 8; in the data set with S. pyogenes ATCC 19615 [6] (1 mg/kg i.v., Day 2, n=8), 7; with S. pyogenes ATCC 19615 [6] (1 mg/kg i.v., Day 3, n=8), 7; in the data set on S. pyogenes ATCC 19615 [6] (1 mg/kg i.v., Day 4, n=8), 7; in the data set with S. pyogenes ATCC 19615 [6] (1 mg/kg i.v., Day 5, n=8) it was 7; in the data set on S. pyogenes ATCC 19615 [6] (1 mg/kg i.v., Day 6, n=8), 7. Also, the Mice surviving in the data set with S. pyogenes ATCC 19615 [6] (1 mg/kg i.v., Day 7, n=8) turned out to be 7; with S. pyogenes ATCC 19615 [6] (3 mg/kg i.v., Day 1, n=8) it was 8; in the data set with S. pyogenes ATCC 19615 [6] (3 mg/kg i.v., Day 2, n=8), 8; with S. pyogenes ATCC 19615 [6] (3 mg/kg i.v., Day 3, n=8) it was 8; in the data set on S. pyogenes ATCC 19615 [6] (3 mg/kg i.v., Day 4, n=8), 8; in the data set on S. pyogenes ATCC 19615 [6] (3 mg/kg i.v., Day 5, n=8), 8. For the same molecule, the Mice surviving in the data set with S. pyogenes ATCC 19615 [6] (3 mg/kg i.v., Day 6, n=8) worked out at 8; with S. pyogenes ATCC 19615 [6] (3 mg/kg i.v., Day 7, n=8), 8; with S. pyogenes ATCC 19615 [6] (10 mg/kg i.v., Day 1, n=8), 8; in the data set with S. pyogenes ATCC 19615 [6] (10 mg/kg i.v., Day 2, n=8), 8; with S. pyogenes ATCC 19615 [6] (10 mg/kg i.v., Day 3, n=8), 8; in the data set with S. pyogenes ATCC 19615 [6] (10 mg/kg i.v., Day 4, n=8), 8. In addition, the Mice surviving in the data set on S. pyogenes ATCC 19615 [6] (10 mg/kg i.v., Day 5, n=8) amounted to 8; in the data set on S. pyogenes ATCC 19615 [6] (10 mg/kg i.v., Day 6, n=8) it was 8; in the data set with S. pyogenes ATCC 19615 [6] (10 mg/kg i.v., Day 7, n=8), 8. The “rescue of infected animals” value with S. pyogenes ATCC 19615 [6] (S. pyogenes systemic infection, i.v. twice daily for two days) is given as “complete rescue”. Further, in the data set with S. pyogenes ATCC 19615 [6] (infected mice, 1, 3 or 10 mg/kg i.v. twice daily for two days, all dose levels), the tolerability entry is listed as “well-tolerated”. For the same molecule, the “reduction in bacterial burden vs clindamycin- and vehicle-treated controls” value with S. pyogenes ATCC 19615 [7] and with S. aureus (MRSA) was “statistically significant reductions” in each case.
